k3/Ki, IC50 and Ki data for eight compounds are collected here from ChEMBL document CHEMBL1136305, “Structure-activity relationships within a series of caspase inhibitors: effect of leaving group modifications” (Bioorg Med Chem Lett, 2003).

Molecules are shown by their SMILES.

The target in assay [1] is T1, Caspase-3 (Homo sapiens) (UniProt P42574).
T1 sequence (whole entry): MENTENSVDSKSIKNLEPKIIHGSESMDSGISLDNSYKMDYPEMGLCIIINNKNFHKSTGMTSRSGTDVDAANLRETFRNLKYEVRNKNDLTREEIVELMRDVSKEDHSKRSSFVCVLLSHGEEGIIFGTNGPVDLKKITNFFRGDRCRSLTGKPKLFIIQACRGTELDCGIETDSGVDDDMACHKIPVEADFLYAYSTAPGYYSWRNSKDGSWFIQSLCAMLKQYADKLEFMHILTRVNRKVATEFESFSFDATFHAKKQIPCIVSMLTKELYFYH
As to the kind of experiment: Inhibitory activity against caspase-3 (Csp-3).

Assay [2] concerns the target T2, Caspase-6 (Homo sapiens) (UniProt P55212).
T2 sequence (whole entry): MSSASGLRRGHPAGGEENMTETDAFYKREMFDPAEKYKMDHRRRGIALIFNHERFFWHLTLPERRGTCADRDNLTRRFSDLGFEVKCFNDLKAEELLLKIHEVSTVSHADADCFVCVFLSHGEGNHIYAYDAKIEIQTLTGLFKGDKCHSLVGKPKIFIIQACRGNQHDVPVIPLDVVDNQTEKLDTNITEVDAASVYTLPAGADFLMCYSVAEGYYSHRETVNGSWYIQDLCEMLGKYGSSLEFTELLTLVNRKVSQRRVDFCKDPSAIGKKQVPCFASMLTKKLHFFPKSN
Put plainly: Inhibitory activity against caspase-6 (Csp-6).

Assay [3] addresses T3, Caspase-1 (Mus musculus) (UniProt P29452).
T3 sequence (whole entry): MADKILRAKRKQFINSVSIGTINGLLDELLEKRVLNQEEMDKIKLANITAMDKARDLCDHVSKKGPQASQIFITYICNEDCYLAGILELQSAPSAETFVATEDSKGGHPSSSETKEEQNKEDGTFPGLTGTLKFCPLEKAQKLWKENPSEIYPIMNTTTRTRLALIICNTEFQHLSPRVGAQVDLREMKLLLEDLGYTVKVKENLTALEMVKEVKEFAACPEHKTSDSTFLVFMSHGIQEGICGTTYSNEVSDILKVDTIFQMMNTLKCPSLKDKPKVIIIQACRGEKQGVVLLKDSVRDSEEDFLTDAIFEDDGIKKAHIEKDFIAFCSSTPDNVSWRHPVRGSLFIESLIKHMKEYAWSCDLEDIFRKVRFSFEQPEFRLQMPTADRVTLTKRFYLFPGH
As to the kind of experiment: Inhibitory activity against murine caspase-1.

Assay [4] has as its target Caspase-8 (Homo sapiens) (UniProt Q14790). Put plainly: Inhibitory activity against caspase-8 (Csp-8).
The nature of assay [5]: (§1) Cellular assay in a model of neuronal apoptosis involving cortical neurons exposed to concanavalin A. Type of assay: functional.
Assay [6] relates to Jurkat. Put plainly: Cellular assay in a Fas-induced model of apoptosis in Jurkat cells. It counts as functional, cell-based. The settings on record: Homo sapiens.
Assay [7] is filed under the species Homo sapiens. Put plainly: Cellular assay in an inflammation model measuring IL1-beta secretion from isolated human monocytes induced with Staph A. It counts as functional.
Assay [8] concerns the target T4, Caspase-3 (Homo sapiens, UniProt P42574).
T4 sequence (P42574 whole entry): T1 sequence (whole entry)
Put plainly: Binding affinity against caspase-3 (Csp-3).

The target of assay [9] is T5, Caspase-1 (Mus musculus, UniProt P29452).
T5 sequence (P29452 whole entry): T3 sequence (whole entry)
Put plainly: Binding affinity against Murine caspase-1 (mCsp-1).

Assay [10] can be described thus: as §1. Type of assay: functional. The source holds these as a separate data set.
Assay [11] concerns the target T2, Caspase-6 (Homo sapiens). Put plainly: Inhibitory activity against Caspase-6 (Csp-6). Type of assay: functional.

Caspase-8 (Homo sapiens), sequence (Q14790 217-374 limits assumed): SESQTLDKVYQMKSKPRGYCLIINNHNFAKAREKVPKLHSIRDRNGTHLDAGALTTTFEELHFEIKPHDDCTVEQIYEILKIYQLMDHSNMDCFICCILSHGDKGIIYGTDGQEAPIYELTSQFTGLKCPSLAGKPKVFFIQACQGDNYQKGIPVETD
Caspase-8 (Homo sapiens), sequence (Q14790 385-479 limits assumed): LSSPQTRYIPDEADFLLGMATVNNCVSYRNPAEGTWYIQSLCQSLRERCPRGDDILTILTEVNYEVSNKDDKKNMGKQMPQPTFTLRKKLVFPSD

As to `CC(C)[C@H](NC(=O)COc1cccc2ccccc12)C(=O)N[C@@H](CC(=O)O)C(=O)COc1ccccc1`, the k3/Ki in assay [1] is 19200 M⁻¹ s⁻¹; in assay [2] it was 2400 M⁻¹ s⁻¹; in assay [3], 3630 M⁻¹ s⁻¹; in [4], 4260 M⁻¹ s⁻¹. In addition, the results for the IC50 in assay [5], in assay [6] and in assay [7] were 38 µM, 14 µM and 11.2 µM, respectively.
For the compound `CC(C)[C@H](NC(=O)COc1cccc2ccccc12)C(=O)N[C@@H](CC(=O)O)C(=O)COc1cccc2ccccc12`, the Ki turned out to be 7.1 nM in assay [8] and 70 nM in assay [9]. Further, the results for the k3/Ki in assay [1] and in [3] were 1.96e+06 M⁻¹ s⁻¹ and 354000 M⁻¹ s⁻¹, respectively. Also, the figures for the IC50 in [10], in assay [6] and in assay [7] were 2.65 µM, > 100 µM and 19 µM, respectively.
For `CC(C)[C@H](NC(=O)COc1cccc2ccccc12)C(=O)N[C@@H](CC(=O)O)C(=O)COc1ccc(C#N)cc1`, the k3/Ki in assay [1] amounted to 10200 M⁻¹ s⁻¹; in assay [2] it was 46 M⁻¹ s⁻¹; in assay [3], 3720 M⁻¹ s⁻¹; in [4] it was 48 M⁻¹ s⁻¹. Also, the IC50 is > 50 µM in [10], > 100 µM in assay [6] and 26.7 µM in [7].
On to `CC(C)[C@H](NC(=O)COc1cccc2ccccc12)C(=O)N[C@@H](CC(=O)O)C(=O)COc1ccccc1C(F)(F)F`, for which the k3/Ki came to 20000 M⁻¹ s⁻¹ in [1], 494 M⁻¹ s⁻¹ in [2], 5630 M⁻¹ s⁻¹ in assay [3] and 75 M⁻¹ s⁻¹ in assay [4]. Also, the IC50 in assay [10] was > 50 µM; in assay [6] it was > 100 µM; in [7], 17.3 µM.
Take `CC(C)[C@H](NC(=O)COc1cccc2ccccc12)C(=O)N[C@@H](CC(=O)O)C(=O)COc1ccc(-c2ccccc2)cc1`: the Ki was 100 nM in assay [8] and 2680 nM in assay [9]. Besides, the k3/Ki in [1] was found to be 9990 M⁻¹ s⁻¹; in [2], 270 M⁻¹ s⁻¹; in [3], 1550 M⁻¹ s⁻¹; in assay [4], 1310 M⁻¹ s⁻¹. The IC50 in assay [10] is > 50 µM; in assay [6] it was 87.9 µM; in assay [7], 38.7 µM.
In the case of `CC(C)[C@H](NC(=O)COc1cccc2ccccc12)C(=O)N[C@@H](CC(=O)O)C(=O)COc1ccc2ccccc2c1`, the figures for the Ki in [8] and in [9] were 90 nM and 3170 nM, respectively. Besides, the k3/Ki in assay [1] was 7520 M⁻¹ s⁻¹; in [3] it was 263 M⁻¹ s⁻¹. The results for the IC50 in [10], in assay [6] and in assay [7] were > 50 µM, > 100 µM and 15.9 µM, respectively.
As to `CC(C)[C@H](NC(=O)COc1cccc2ccccc12)C(=O)N[C@@H](CC(=O)O)C(=O)CF`, the k3/Ki was 207000 M⁻¹ s⁻¹ in assay [1], 36800 M⁻¹ s⁻¹ in [11], 129000 M⁻¹ s⁻¹ in assay [3] and 71700 M⁻¹ s⁻¹ in [4]. Also, the figures for the IC50 in [10], in [6] and in [7] were 3.05 µM, 0.24 µM and 0.95 µM, respectively.
For the compound `CC(C)[C@H](NC(=O)COc1cccc2ccccc12)C(=O)N[C@@H](CC(=O)O)C(=O)COc1c(F)cccc1F`, the k3/Ki in assay [1] was determined as 200000 M⁻¹ s⁻¹; in [2], 9980 M⁻¹ s⁻¹; in assay [3], 53900 M⁻¹ s⁻¹; in assay [4] it was 9080 M⁻¹ s⁻¹. In addition, the IC50 in assay [10] is 2.4 µM; in assay [6], 2.04 µM; in assay [7] it was > 100 µM.
